US7737169B2, “Anionically substituted 7-nitroindoline derivatives and their uses” (Medical Research Council, priority 2005, dated 2010)

Key:
[1] = tested on: GABA channels; experiment: photolytic release of GABA onto neuronal cells, current responses (FIG. 1); type: cell-based
Description: FIG. 1. Current responses to photolytic release of GABA from various concentrations of 6 onto two different neuronal cells, as specified in the FIGURE. The experimental set-up and protocol was as described in reference 4.
A previous evaluation of nitroindoline-caged amino acids in neural tissue has been published^4. […] Tests described here were to assess the photolytic efficiency of GABA release in a neurophysiological experiment with particular attention to point (3), namely the presence or absence of interference of the new caged GABA with GABA-activated channels. If interference is low the expectation is that the rise-time of the receptor activation by photoreleased GABA in the presence of high cage concentration should be similar to that generated by endogenously released GABA, rising in 1-2 ms.

[2] = tested on: GABA receptors; details: caged ester before photolysis; cited from earlier work

SMILES	rise-time of current through GABA channels ([1]; 0.5 mM GABA released, 1.5 mM caged GABA present, FIG. 1 left panel) [ms]	amplitude and rate of rise of currents through GABA channels ([1]; 20-200 μm GABA released by different photolysis intensities, 1.4 mM caged GABA present, FIG. 1 right panel)	pharmacological effects [2]
NCCCC(=O)N1CCc2c(OC(COP(=O)(O)O)COP(=O)(O)O)ccc([N+](=O)[O-])c21 [Compound 6, 1-(4-Aminobutanoyl)-4-[1,3-bis(dihydroxyphosphoryloxy)propan-2-yloxy]-7-nitroindoline]	1	increasing amplitudes and rates of rise at high concentration	–
NCCCC(=O)OC(C(=O)O)c1ccccc1[N+](=O)[O-] (stereo not drawn) [Compound 5, α-carboxy-2-nitrobenzyl ester of GABA]	–	–	no pharmacological effects
